Data reported in patent US12310954B2, “Salivary gland regeneration” (The Regents of the University of California, priority 2018, dated 2025).

How the values were obtained:
[1] = system: SOX2^+ cells in SLG explants; experiment: Ex vivo lineage tracing in adult salivary gland explants (Sox2CreERT2; Rosa26mTmG); assay type: cell-based, mouse; conditions: 200 nM, 48 h
Description: Salivary glands from Sox2^CreERT2; Rosa26^mTmG mice (recombination induced 24 h prior) were mechanically dissected into <1-mm pieces, placed in complete media in the presence or absence of 200 nM CCh (Sigma-Aldrich) or 10 μM 4-DAMP (Tocris), and cultured for 48 h before being fixed for immunofluorescence. In some cases, mice were irradiated with three doses of 5 Gy before glands were taken for culture as above.
Whole-mount salivary gland and tissue section immunofluorescence analysis has been previously described (Knox et al., 2010). In brief, tissue was fixed with either ice-cold acetone/methanol (1:1) for 1 min or 4% PFA for 20-30 min followed by permeabilizing with 0.1-0.3% Triton X. Tissue was blocked overnight at 4° C. with 10% Donkey Serum (Jackson Laboratories, ME), 1% BSA (Sigma-Aldrich), and MOM IgG-blocking reagent (Vector Laboratories, CA) in 0.01% PBS-Tween 20. […] Antibodies were detected using Cy2-, Cy3-, or Cy5-conjugated secondary Fab fragment antibodies (Jackson Laboratories) and nuclei stained using Hoechst 33342 (1:1,000, Sigma-Aldrich). Fluorescence was analyzed using a Leica Sp5 confocal microscope and NIH ImageJ software.
For immunofluorescent analyses (e.g., FIG. 2D), cells positively stained for markers were counted using ImageJ. Acinar cell size was measured using ImageJ. […]

[2] = system: human salivary gland (SMG or PG) explants; experiment: Human salivary gland explant culture with CCh, qPCR; assay type: cell-based; conditions: 200 nM, 4 h, vs untreated
Text: Adult human salivary gland was obtained from discarded, non-identifiable tissue with consent from patients undergoing neck resection (age 28-78, male and female). Informed consent was given by all subjects and experiments conformed to the principles set out in the WMA Declaration of Helsinki and the Department of Health and Human Services Belmont Report. Patients had either had no irradiation therapy (non-IR) or fractionated radiation therapy (IR)<2 years prior to surgery. Tissue was immediately placed in 4% PFA, RNAlater (Qiagen) or DMEM (Thermo Fisher) for live cell explant culture. For ex vivo culture, non-IR tissue was dissected into <1-mm pieces and cultured in serum-free DMEM/F12 containing holotransferrin and ascorbic acid. For explant assays, the tissue (SMG and PG) was incubated with 50-200 nM CCh (200 nM CCh shown in results) for 4 h before being lysed for RNA. For salivary gland explant-parasympathetic submandibular ganglia […] co-culture, tissue was dissected into <1-mm pieces and cultured on a floating filter above serum-free media. E13 mouse parasympathetic submandibular ganglia were isolated as previously described (Knox et al., 2010). One parasympathetic submandibular ganglion per explant was placed next to the human salivary gland and cultured for 7 days and either fixed for immunofluorescent analysis or lysed for RNA.
RNA was isolated from whole tissue using RNAqueous Micro Kit (Ambion). Total RNA samples were DNase-treated (Ambion) prior to cDNA synthesis using SuperScript reagents (Invitrogen, CA). SYBR green qPCR was performed using 5 ng (mouse) or 4-10 ng (human) of cDNA and primers designed using Primer3 and Beacon Designer software or described on PrimerBank (pga.mgh.harvard.edu/primerbank/). Melt curves and primer efficiency were determined as previously described (Hoffman et al., 2002). Gene expression was normalized to the housekeeping genes S18 and S29 (Rps18 and Rsp29) or GAPDH for mouse and GAPDH for human and to the corresponding experimental control. Reactions were run in triplicate and experiments performed 2-3 times.

[3] = system: acinar cells of the sublingual gland; experiment: Intraglandular injection of cevimeline, acinar cell proliferation; assay type: in vivo, mouse; conditions: 10 mg/kg (20 μL) directly into sublingual gland, 18 hrs, non-irradiated mice, vs saline
Description: Given our previous findings that systemic administration of a muscarinic mimetic promotes salivary gland proliferation, we next determined if local intraglandular injection was also able to promote a mitotic response. To determine if cevimeline could act locally on the salivary gland to induce acinar cell proliferation we injected cevimeline at 10 mg/kg of body weight (20 μL) directly into the sublingual gland and measured proliferation after 18 hrs.
For Intraglandular injection of cevimeline, mice were administered with analgesics 30 min prior to surgery (carprofen and buprenorphine; Patterson Veterinary and Buprenex; 0.1 mg/kg and […] (IP), respectively) and anaesthetized via inhalation with 2% isoflurane/O2mix. The surgical area was shaved and prepared for incision with alternating iodine and alcohol washes, followed by local anesthetic (lidocaine; Hospira Inc., 8 mg/kg). […]
Tissue section immunofluorescence analysis was processed as follows. […] Antibodies were detected using Cy2-, Cy3- or Cy5-conjugated secondary Fab fragment antibodies (1:300, Jackson Laboratories) and nuclei stained using Hoescht 33342 (1:1000, AnaSpec Inc.). […] Slides were mounted using Fluoromount-G (SouthernBiotech) and fluorescence was analyzed using a Leica Sp5 confocal microscope. Image processing and quantification was performed using NIH ImageJ software.

[4] = In vitro cevimeline release from alginate hydrogels (LC-MS/MS); assay type: physicochemical
Description: A Shimadzu Prominence LC-20ADXR system interfaced to a 4500 QTrap mass spectrometer with an electrospray ionization (ESI) source was operated for LC-MS/MS analysis. The chromatographic separation was achieved using a Phenomenex KineteX® C18 (50×3 mm, 2.6 μm) column coupled with a Phenomenex SecurityGuard C18 guard column (3 mm×2.0 mm). The column temperature was controlled at 30° C. Mobile phase A was 0.1% Trifluoroacetic acid in water and mobile phase B was acetonitrile (ACN). The injection volume was 10 μL and the flow rate was 0.5 mL/min. The gradient condition was: (time/minute, % mobile phase B): (0, 15), (1, 15), (2.5, 22.8), (2.6, 98), (5, 98), (5.1, 15), and (8, 15). The source parameters included curtain gas of 45 psi, ion spray voltage of 4000 V, ion source temperature of 550, and medium collision gas.
Standard working solutions of cevimeline were prepared over the range from of 10.0-10000.0 ng/mL in methanol. Working solutions were spiked into 100 μL of DMEM to generate the standards or QC samples. The final concentrations of the calibration standards were 0.5, 1.0, 2.5, 5.0, 10.0, 25.0, 50.0 and 100.0, 250.0 and 500 ng/mL in DMEM. The QC samples were 0.9, 4, 30.0 and 400.0 ng/mL.
For the sample preparation step, to each 100 μL DMEM, 10 μL IS working solution (1000 ng/mL) was added. 96-Well Protein Precipitation Filter Plate Sigma-Aldrich (St. Louis, MO) and 300 μl of MeOH:ACN (15:85) were used for protein precipitation. 200 μl of NH4OH 5% was added to 200 μl of the sample after filtration and 10 μl was injected to the LCMS system. The bioanalytical method was validated in accordance with current U.S. FDA guidelines including selectivity, linearity, intra- and interday precision and accuracy, recovery and stability (“Guidance for Industry, Bioanalytical Method Validation,”2018 fda.gov/media/70858/download).
In vitro cevimeline (CV) release from OA hydrogels was tested by creating 1 mm×4 mm disks with either a 2 or 5% oxidation at a weight/volume of 2, 5, or 10%. Alginate+cevimeline (Abcam, ab141317) hydrogels were created by resuspending the drug at the desired concentration in the DMEM prior to mixing with the lyophilized OA, subsequent crosslinking proceeds as described above to encapsulate the drug with the OA hydrogel. Three 4 mm alginate+cevimeline hydrogels were placed in 0.4 μm transwell in a 12-well plate containing 3.2 ml of DMEM incubating in 37° C. with slow continuous agitation (100 RPM). Sample media (3 ml DMEM) was collected and replenished at 4 hours, 1-, 2-, 3-, 4-, 5-, and 7 days (D). Three hydrogels were pooled together with an average of 3-5 separate replicates (samples) at each time point. Sample media was stored at −20° C. until mass spectroscopy analysis was performed. […]

[5] = system: acinar cells of irradiated salivary glands; experiment: Cell proliferation in salivary glands after gamma-radiation induced damage; assay type: in vivo, mouse; conditions: 14 days after 10Gy, 18 hrs, vs saline
[6] = cited from earlier work
[7] = long term oral use in patients; cited from earlier work

## C[N+](C)(C)CCOC(N)=O [CCh, carbachol]
[1]; healthy (no IR) SLG tissue
  GFP^+ clones: increase
[1]; healthy SLG tissue
  cell proliferation (Ki67^+ cells): increase
[1]; irradiated SLG explants, compared to IR alone
  GFP^+ cells in IR explants: increased
[2]; n=4 individuals
  expression of AQP3: significantly increased
  expression of AQP5: significantly increased
  expression of CHRM1: significantly increased
  expression of CHRM3: significantly increased
  expression of MIST1: significantly increased
  expression of SOX2: significantly increased
[2]
  KRT19 gene expression: increase
  expression of ductal marker EGFR: remained unchanged
  expression of ductal marker KRT7: remained unchanged
  expression of ductal marker KRT8: remained unchanged

## CC1OC2(CS1)CN1CCC2CC1 (stereo not shown) [cevimeline]
[3]
  acinar cell proliferation: significantly increased
[4]; 2% OA hydrogels at 5 wt %, different initial cevimeline loading per disk
  release rates with different starting drug loading: remain relatively consistent
[4]; from OA alginate hydrogels (2 or 5% OA; 2, 5 or 10 wt %)
  cevimeline released by 2 days: over 85±5%
[4]; from OA hydrogels
  day by which all cevimeline had been released: ≤ 4 days
[4]; from alginate hydrogel
  duration of sustained release: 2 days
[5]; local (intraglandular) 10 mg/kg
  proliferation of acinar cells in irradiated mice: increased
[5]; systemic (i.p.) 10 mg/kg
  proliferation of acinar cells in irradiated mice: increased
[6]
  pKA: 9.5
[7]
  salivary gland function: improves salivary gland function
